TGI data for twelve compounds are collected here from PubChem BioAssay (NCI).

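How tested: cells in 96-well plates exposed to compound for 48 hours at five concentrations. At the TGI there is no net growth.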

Among the test systems are BT-549 breast; COLO 205 colon; EKVX NSCLC; HCC-2998 colon; HOP-62 NSCLC; HS 578T breast; MDA-MB-435; MDA-N; NCI-H23 lung; NCI-H460 lung; NCI/ADR-RES ovarian; SF-268 CNS; SF-539 CNS; SK-OV-3 ovarian; TK-10 renal; UO-31 renal; CAKI-1 renal; HOP-92 NSCLC; LOX IMVI melanoma; SR leukemia.
Test in all cases: NCI tumour cell line growth inhibition, 48 h

For the compound `CC(C)(C)[Si](C)(C)OCCc1ccccc1C1CC2(S(=O)(=O)c3ccccc3)ON1CC2S(=O)(=O)c1ccccc1` (stereo not given), the TGI with BT-549 breast, with COLO 205 colon, in the experiment on EKVX NSCLC, in the experiment on HCC-2998 colon, in the experiment with HOP-62 NSCLC and with HS 578T breast was > 100 µM throughout. The TGI in the experiment on MDA-MB-435, in the experiment with MDA-N, in the experiment with NCI-H23 lung, in the experiment with NCI-H460 lung, with NCI/ADR-RES ovarian and in the experiment with SF-268 CNS was > 100 µM each time. For the same compound, the TGI in the experiment with SF-539 CNS, with SK-OV-3 ovarian, with TK-10 renal and in the experiment with UO-31 renal was > 100 µM in each case.

`CCOC(=O)c1c(N2CCOCC2)ncn(-c2cccc(Cl)c2)c1=O`: the TGI in the experiment on BT-549 breast, in the experiment on CAKI-1 renal, with COLO 205 colon, in the experiment with EKVX NSCLC, with HCC-2998 colon and with HOP-62 NSCLC was > 100 µM each time. Further, the TGI in the experiment on HOP-92 NSCLC, in the experiment with HS 578T breast, with LOX IMVI melanoma, in the experiment with MDA-MB-435, in the experiment on MDA-N and in the experiment on NCI-H23 lung was > 100 µM throughout. Also, the TGI in the experiment on NCI-H460 lung, in the experiment with NCI/ADR-RES ovarian, in the experiment with SF-268 CNS, in the experiment with SF-539 CNS, in the experiment on SK-OV-3 ovarian and in the experiment with TK-10 renal was > 100 µM in each case.

For `CC(=O)O[C@H]1CC[C@H]2[C@@H]3CCC4=C/C(=N/OCCN(C)C)CC[C@]4(C)[C@H]3CC[C@]12C`, the TGI with BT-549 breast came to 27.2 µM; in the experiment with CAKI-1 renal, 27.2 µM; with COLO 205 colon, 8.18 µM; in the experiment with EKVX NSCLC it was 29 µM; with HCC-2998 colon it was 19 µM; with HOP-62 NSCLC, 27.5 µM. Besides, the TGI with HS 578T breast was found to be 34.1 µM; in the experiment with LOX IMVI melanoma, 11 µM; in the experiment on MDA-MB-435, 6.42 µM; with MDA-N, 14.4 µM; in the experiment with NCI-H23 lung, 25.6 µM; in the experiment with NCI-H460 lung, 20.4 µM. Moreover, the TGI is 27.8 µM with NCI/ADR-RES ovarian; 27.5 µM with SF-268 CNS; 7.28 µM in the experiment on SF-539 CNS; 24.6 µM with SK-OV-3 ovarian; 27 µM with TK-10 renal; 28.1 µM with UO-31 renal.

Regarding `C=CCc1oc(C)nc1CCCC`, the TGI with BT-549 breast, in the experiment with CAKI-1 renal, in the experiment on COLO 205 colon, in the experiment with EKVX NSCLC, in the experiment on HCC-2998 colon and in the experiment with HOP-62 NSCLC was > 100 µM throughout. Also, the TGI in the experiment on HOP-92 NSCLC, with HS 578T breast, in the experiment on LOX IMVI melanoma, in the experiment on MDA-MB-435, in the experiment on MDA-N and in the experiment on NCI-H23 lung was > 100 µM throughout. The TGI in the experiment with NCI-H460 lung, with NCI/ADR-RES ovarian, with SF-268 CNS, in the experiment with SF-539 CNS, in the experiment on SK-OV-3 ovarian and in the experiment with TK-10 renal was > 100 µM in each case. In addition, the TGI with UO-31 renal was > 100 µM.

On to `O=C(OCc1ccccc1)c1ccc(NCc2cc(O)ccc2O)cc1`, for which the TGI with BT-549 breast was determined as 2.19 µM; with CAKI-1 renal it was 1.79 µM; in the experiment on COLO 205 colon it was 2.88 µM; with EKVX NSCLC it was 3.48 µM; in the experiment with HCC-2998 colon, 6.12 µM; in the experiment with HOP-62 NSCLC, 20.1 µM. Besides, the TGI in the experiment on HOP-92 NSCLC was determined as 2.23 µM; with HS 578T breast, 5.43 µM; in the experiment on LOX IMVI melanoma, 3.14 µM; with MDA-MB-435, 3.9 µM; in the experiment with MDA-N, 4.6 µM; in the experiment on NCI-H23 lung it was 3.73 µM. The TGI in the experiment on NCI-H460 lung was 18.7 µM; in the experiment with NCI/ADR-RES ovarian, 4.18 µM; with SF-268 CNS, 2.99 µM; in the experiment with SF-539 CNS it was 2.27 µM; in the experiment with SK-OV-3 ovarian, 11.2 µM; in the experiment with TK-10 renal, 3.87 µM. The compound further gave a TGI in the experiment on UO-31 renal of 2.61 µM.

On to `O=C(/C=C/c1ccccc1)c1cc(C(=O)/C=C/c2ccccc2)c(O)cc1O`, for which the TGI with BT-549 breast, in the experiment on CAKI-1 renal, with COLO 205 colon, in the experiment on EKVX NSCLC, in the experiment on HCC-2998 colon and in the experiment on HOP-62 NSCLC was > 100 µM each time. For the same compound, the TGI in the experiment on HOP-92 NSCLC was > 100 µM; in the experiment with HS 578T breast, 83.7 µM; in the experiment on LOX IMVI melanoma, > 100 µM; with MDA-MB-435, > 100 µM; in the experiment on MDA-N it was > 100 µM; in the experiment with NCI-H23 lung, > 100 µM. Also, the TGI in the experiment on NCI-H460 lung, in the experiment on SF-539 CNS, in the experiment with SK-OV-3 ovarian, in the experiment with TK-10 renal and in the experiment on UO-31 renal was > 100 µM in each case.

On to `C/C(O)=C(\C=NC(=S)c1cccnc1)C(=O)Nc1ccccc1C`, for which the TGI in the experiment with BT-549 breast, with CAKI-1 renal, in the experiment on COLO 205 colon, in the experiment on EKVX NSCLC, in the experiment on HCC-2998 colon and in the experiment on HOP-62 NSCLC was > 100 µM each time. Also, the TGI in the experiment on HOP-92 NSCLC, in the experiment with HS 578T breast, with LOX IMVI melanoma, in the experiment with MDA-MB-435, in the experiment with MDA-N and in the experiment with NCI-H23 lung was > 100 µM throughout. Also, the TGI in the experiment with NCI-H460 lung, in the experiment on NCI/ADR-RES ovarian, in the experiment with SF-268 CNS, with SF-539 CNS, with SK-OV-3 ovarian and in the experiment with TK-10 renal was > 100 µM throughout. Besides, in the experiment on UO-31 renal, the TGI was > 100 µM.

In the case of `CC(C)(C)n1c(=O)n(-c2ccccc2)n(C(C)(C)C)c1=O`, the TGI in the experiment on BT-549 breast, in the experiment on CAKI-1 renal, in the experiment on COLO 205 colon, with EKVX NSCLC, in the experiment with HCC-2998 colon and with HOP-62 NSCLC was > 100 µM in each case. The TGI in the experiment with HOP-92 NSCLC, in the experiment on HS 578T breast, in the experiment on LOX IMVI melanoma, in the experiment on MDA-N, in the experiment on NCI-H23 lung and in the experiment with NCI-H460 lung was > 100 µM throughout. Besides, the TGI in the experiment with NCI/ADR-RES ovarian, with SF-539 CNS, in the experiment on SK-OV-3 ovarian, in the experiment with SR leukemia, in the experiment with TK-10 renal and in the experiment on UO-31 renal was > 100 µM each time.

Turning to `COc1ccc(C(OCC2OC3(COC(c4ccccc4)(c4ccc(OC)cc4)c4ccc(OC)cc4)C(Oc4nc(=O)ccn43)C2O)(c2ccccc2)c2ccc(OC)cc2)cc1` (stereo not given), the TGI in the experiment with BT-549 breast was > 100 µM; with CAKI-1 renal it was > 100 µM; with COLO 205 colon it was > 100 µM; with EKVX NSCLC, > 100 µM; in the experiment with HOP-62 NSCLC, > 100 µM; in the experiment with HS 578T breast it was 51.8 µM. The TGI in the experiment on LOX IMVI melanoma, in the experiment with MDA-MB-435, in the experiment with MDA-N, in the experiment with NCI-H23 lung, in the experiment on NCI/ADR-RES ovarian and with SF-268 CNS was > 100 µM each time. Besides, the TGI in the experiment with SF-539 CNS, in the experiment on SK-OV-3 ovarian, in the experiment on SR leukemia, in the experiment with TK-10 renal and in the experiment with UO-31 renal was > 100 µM each time.

In the case of `COc1c2cc([N+](=O)[O-])cc1CN(C(=O)C(F)(F)F)CCOCCN(C(=O)C(F)(F)F)C2`, the TGI in the experiment with BT-549 breast, in the experiment on CAKI-1 renal, with COLO 205 colon, in the experiment with EKVX NSCLC, in the experiment with HOP-62 NSCLC and in the experiment on HOP-92 NSCLC was > 100 µM each time. Besides, the TGI in the experiment on HS 578T breast, in the experiment on LOX IMVI melanoma, in the experiment on MDA-MB-435, with MDA-N, in the experiment with NCI-H23 lung and in the experiment with NCI-H460 lung was > 100 µM in each case. Moreover, the TGI with SF-268 CNS, in the experiment with SF-539 CNS, in the experiment with SK-OV-3 ovarian, in the experiment with TK-10 renal and in the experiment with UO-31 renal was > 100 µM in each case.

Consider `CC(=O)NC1CC(C(C)(C)NC(C)=O)CC=C1C` (stereo not given), for which the TGI in the experiment on BT-549 breast, in the experiment with COLO 205 colon, in the experiment with EKVX NSCLC, in the experiment with HCC-2998 colon, with HOP-62 NSCLC and with HOP-92 NSCLC was > 100 µM in each case. Moreover, the TGI with LOX IMVI melanoma, in the experiment with MDA-MB-435, in the experiment on MDA-N, with NCI-H23 lung, in the experiment with NCI-H460 lung and in the experiment with NCI/ADR-RES ovarian was > 100 µM in each case. Moreover, the TGI in the experiment with SF-268 CNS, with SF-539 CNS, in the experiment with SK-OV-3 ovarian, in the experiment on SR leukemia, with TK-10 renal and in the experiment with UO-31 renal was > 100 µM throughout.

With `CC(=Nc1cccc(Cl)c1)c1ccncc1`, the TGI with BT-549 breast, in the experiment with CAKI-1 renal, in the experiment on COLO 205 colon, in the experiment with EKVX NSCLC, with HCC-2998 colon and in the experiment on HOP-62 NSCLC was > 100 µM throughout. Moreover, the TGI in the experiment with HOP-92 NSCLC, with HS 578T breast, in the experiment with LOX IMVI melanoma, in the experiment with MDA-MB-435, in the experiment with MDA-N and in the experiment on NCI-H23 lung was > 100 µM in each case. In addition, the TGI in the experiment with NCI-H460 lung, with NCI/ADR-RES ovarian, in the experiment with SF-268 CNS, in the experiment on SF-539 CNS, with SK-OV-3 ovarian and with TK-10 renal was > 100 µM in each case. Further, the TGI with UO-31 renal is > 100 µM.
